Measurements as given in patent publication US8309554B2 (priority 2008, dated 2012).
Where two headings read alike, the source gives them in different places.

What was measured:
H460 = experiment: cells; assay type: cell-based; details: for IC50: Homo sapiens
HT29 = experiment: cells; assay type: cell-based; details: for IC50: Homo sapiens, HT-29, 2 h
[1] = NCI-H460, read-out: 2 h Air H460 monolayer IC50
[2] = NCI-H460, read-out: 2 h N2 H460 monolayer IC50
[3] = NCI-H460, 2 h, read-out: 2 hr Air H460 IC50
[4] = NCI-H460, 2 h, read-out: 2 hr N2 H460 IC50

SMILES | IC50 (H460; [1]) [µM] | IC50 (H460; [2]) [µM] | H460 HCR: Air/N2 (H460) | IC50 (H460; [3]) [µM] | IC50 (H460; [4]) [µM] | also measured
Cc1cc(OS(=O)(=O)Cc2ccsc2[N+](=O)[O-])ccc1N(CCCl)CCCl [TH-1103] | 0.7 | 0.1 |  |  |  | 
Cn1c(CS(=O)(=O)Nc2ccc(N(CCCl)CCCl)cc2)cnc1[N+](=O)[O-] [TH-1104] | 7.4 | 6.1 |  |  |  | 
O=[N+]([O-])c1nccn1CS(=O)(=O)Nc1ccc(N(CCCl)CCCl)cc1 [TH-1105] | 7.6 | 4.2 |  |  |  | 
Cc1cc(OS(=O)(=O)Cn2ccnc2[N+](=O)[O-])ccc1N(CCCl)CCCl [TH-1106] | 0.9 | 0.2 |  |  |  | 
CN(c1ccc(N(CCCl)CCCl)cc1)S(=O)(=O)Cc1cnc([N+](=O)[O-])n1C [TH-1108] | 15 | 11 |  |  |  | 
Cc1cc(OS(=O)(=O)Cc2ncc([N+](=O)[O-])n2C)ccc1N(CCCl)CCCl [TH-1110] | 1.4 | 2.1 |  |  |  | 
Cc1cc(OS(=O)(=O)Cc2ncn(C)c2[N+](=O)[O-])ccc1N(CCCl)CCCl [TH-1111] | 4.7 | 2.5 |  |  |  | 
Cc1cc(OS(=O)(=O)Cc2nc(C)n(C)c2[N+](=O)[O-])ccc1N(CCCl)CCCl [TH-1112] | 1.4 | 1.7 |  |  |  | 
Cc1cc(OS(=O)(=O)C(C)(C)c2ccc([N+](=O)[O-])cc2)ccc1N(CCCl)CCCl [TH-1115] | 13 | 3 |  |  |  | 
Cc1cc(OS(=O)(=O)C(C)(C)c2ccc([N+](=O)[O-])cc2)ccc1N(CCBr)CCBr [TH-1116] | 1.1 | 0.6 |  |  |  | 
Cc1cc(OS(=O)(=O)Cc2ccoc2[N+](=O)[O-])ccc1N(CCCl)CCCl [TH-1117] | 2.3 | 1.1 |  |  |  | 
CN(c1ccc(N(CCCl)CCCl)cc1)S(=O)(=O)Cc1ccsc1[N+](=O)[O-] [TH-1118] | 12.9 | 6.7 |  |  |  | 
Cn1c(CN(c2ccc(N(CCCl)CCCl)cc2)S(=O)(=O)CCl)cnc1[N+](=O)[O-] [TH-1119] | > 300 | > 300 |  |  |  | 
Cc1cc(OS(=O)(=O)C(C)(C)c2ccsc2[N+](=O)[O-])ccc1N(CCCl)CCCl [TH-1121] | 1.3 | 0.3 |  |  |  | 
CC(c1ccc([N+](=O)[O-])cc1)S(=O)(=O)N(C)c1ccc(N(CCCl)CCCl)cc1 (stereo not shown) [TH-1122] | > 300 | > 300 |  |  |  | 
CN(c1ccc(N(CCCl)CCCl)cc1)S(=O)(=O)Cc1ccc([N+](=O)[O-])cc1 [TH-1123] | > 300 | > 300 |  |  |  | 
CN(c1ccc(N(CCCl)CCCl)cc1)S(=O)(=O)C(C)(C)c1ccc([N+](=O)[O-])cc1 [TH-1124] | 289 | 243 |  |  |  | 
Cc1cc(CS(=O)(=O)N(C)c2ccc(N(CCCl)CCCl)cc2)c([N+](=O)[O-])s1 [TH-1125] | 148 | 69 |  |  |  | 
Cn1c(CN(c2ccc(N(CCCl)CCCl)cc2)S(=O)(=O)C(F)(F)F)cnc1[N+](=O)[O-] [TH-1128] | 267 | 294 |  |  |  | 
CN(c1ccc(N(CCCl)CCCl)cc1)S(=O)(=O)Cc1nc(-c2ccccc2)c([N+](=O)[O-])n1C [TH-1129] | 6.9 | 3.6 |  |  |  | 
CN(c1ccc(N(CCCl)CCCl)cc1)S(=O)(=O)C(C)(C)c1nc(-c2ccccc2)c([N+](=O)[O-])n1C [TH-1130] | 122 | 65 |  |  |  | 
Cc1cc(CS(=O)(=O)Oc2ccc(N(CCCl)CCCl)c(C)c2)c([N+](=O)[O-])s1 [TH-1131] | 1 | 0.3 |  |  |  | 
Cc1cc(C(C)(C)S(=O)(=O)Oc2ccc(N(CCCl)CCCl)c(C)c2)c([N+](=O)[O-])s1 [TH-1132] | 2 | 0.3 |  |  |  | 

SMILES | IC50 (H460; [1]) [µM] | IC50 (H460; [2]) [µM] | H460 HCR: Air/N2 (H460) | IC50 (H460; [3]) [µM] | IC50 (H460; [4]) [µM] | also measured
O=[N+]([O-])c1nccn1CS(=O)(=O)Nc1cc(F)c(N(CCCl)CCCl)c(F)c1 [TH-1133] | 11.3 | 5.9 |  |  |  | 
Cc1cc(OS(=O)(=O)C(C)(C)n2ccnc2[N+](=O)[O-])ccc1N(CCCl)CCCl [TH-1134] | 0.2 | < 0.1 |  |  |  | 
CN(c1cc(F)c(N(CCCl)CCCl)c(F)c1)S(=O)(=O)Cn1ccnc1[N+](=O)[O-] [TH-1135] | 9.2 | 3.4 |  |  |  | 
CN(c1cc(F)c(N(CCCl)CCCl)c(F)c1)S(=O)(=O)C(C)(C)n1ccnc1[N+](=O)[O-] [TH-1136] | 5.1 | 5 |  |  |  | 
Cn1c(CS(=O)(=O)Nc2cc(F)c(N(CCCl)CCCl)c(F)c2)cnc1[N+](=O)[O-] [TH-1137] | 20.4 | 8.3 |  |  |  | 
CN(c1cc(F)c(N(CCCl)CCCl)c(F)c1)S(=O)(=O)Cc1cnc([N+](=O)[O-])n1C [TH-1138] | 34.2 | 13.5 |  |  |  | 
O=[N+]([O-])c1sccc1C(Cc1ccc2c(ccn2CCO)c1)S(=O)(=O)Oc1ccc(N(CCCl)CCCl)cc1 (stereo not shown) [TH-1140] |  |  | 114 | 114 | 1 | 
CN(c1ccc(N(CCBr)CCBr)cc1)S(=O)(=O)Cn1ccnc1[N+](=O)[O-] [TH-1141] | 0.5 | 0.1 |  |  |  | 
CCc1nc([N+](=O)[O-])n(C)c1CS(=O)(=O)N(C)c1ccc(N(CCCl)CCCl)cc1 [TH-1145] | 78.2 | 3.8 |  |  |  | 
O=[N+]([O-])c1sccc1CS(=O)(=O)Oc1ccc(N(CCCl)CCCl)c(F)c1 [TH-1192, 3-((3-Fluoro-4-(N,N-bis-(2-chloroethyl)amino)phenoxy)sulfonyl)methyl-2-nitrothiophene] |  |  | 39 | 59.2 | 1.5 | HT29 HCR: Air/N2 (HT29): 20; IC50 (HT29; read-out: 2 hr Air HT29 IC50): 162 µM; IC50 (HT29; read-out: 2 hr N2 HT29 IC50): 8 µM
O=[N+]([O-])c1sccc1C(CNS(=O)(=O)c1ccccc1)S(=O)(=O)Oc1ccc(N(CCCl)CCCl)cc1 (stereo not shown) [TH-1218, 3-(4-(N,N-bis-(2-Chloroethyl)amino)phenoxysulfonyl-(phenylsulfonylaminomethyl))methyl-2-nitrothiophene] |  |  | 106 | 74 | 0.7 | IC50 (HT29; read-out: 2 hr Air HT29 IC50): > 300 µM; IC50 (HT29; read-out: 2 hr N2 HT29 IC50): > 300 µM
O=[N+]([O-])c1sccc1C(Cc1ccc(NS(=O)(=O)C(F)(F)F)nc1)S(=O)(=O)Oc1ccc(N(CCCl)CCCl)cc1 (stereo not shown) [TH-1262] |  |  | 150 | 90 | 0.6 | 
CS(=O)(=O)Nc1ccc(CC(c2ccsc2[N+](=O)[O-])S(=O)(=O)Oc2ccc(N(CCCl)CCCl)cc2)cn1 (stereo not shown) [TH-1272] |  |  | 91 | 290 | 3.2 | 
Cc1ccc(S(=O)(=O)NCC(c2ccsc2[N+](=O)[O-])S(=O)(=O)Oc2ccc(N(CCCl)CCCl)cc2)cc1 (stereo not shown) [TH-1312] |  |  | 31 | 122 | 3.9 | 
O=[N+]([O-])c1sccc1C(Cc1ccc(Cl)nc1)S(=O)(=O)Oc1ccc(N(CCCl)CCCl)cc1 (stereo not shown) [TH-1341] |  |  | 43 | 145 | 3.4 | 
CC(C)(C)OC(=O)NCC(=O)Nc1ccc(CC(c2ccsc2[N+](=O)[O-])S(=O)(=O)Oc2ccc(N(CCCl)CCCl)cc2)cn1 (stereo not shown) [TH-1351] |  |  | 49 | ~300 | 6.1 | 
O=[N+]([O-])c1sccc1C(Cc1ccc(N2CCC[C@H]2CO)nc1)S(=O)(=O)Oc1ccc(N(CCCl)CCCl)cc1 (stereo partly shown) [TH-1430] |  |  | 500 | 300 | 0.6 | 
CN(CCO)c1ccc(CC(c2ccsc2[N+](=O)[O-])S(=O)(=O)Oc2ccc(N(CCCl)CCCl)cc2)cn1 (stereo not shown) [TH-1434] |  |  | 83 | 50 | 0.6 | 
O=[N+]([O-])c1sccc1C(Cc1ccc(O[C@@H]2CCC[C@H]2O)nc1)S(=O)(=O)Oc1ccc(N(CCCl)CCCl)cc1 (stereo partly shown) [TH-1452] |  |  | 55 | 110 | 2 | 
O=[N+]([O-])c1sccc1C(Cc1ccc2nn(CCO)nc2c1)S(=O)(=O)Oc1ccc(N(CCCl)CCCl)cc1 (stereo not shown) [TH-1458] |  |  | 60 | 30 | 0.5 | 
C[C@H](O)C(=O)Nc1ccc(CC(c2ccsc2[N+](=O)[O-])S(=O)(=O)Oc2ccc(N(CCCl)CCCl)cc2)cc1 (stereo partly shown) [TH-1468] |  |  | 75 | 30 | 0.4 | 
COCC(=O)Nc1ccc(CC(c2ccsc2[N+](=O)[O-])S(=O)(=O)Oc2ccc(N(CCCl)CCCl)cc2)cn1 (stereo not shown) [TH-1477] |  |  | 43 | 13 | 0.3 | 
C[C@H](O)[C@H](C)Oc1ccc(CC(c2ccsc2[N+](=O)[O-])S(=O)(=O)Oc2ccc(N(CCCl)CCCl)cc2)cn1 (stereo partly shown) [TH-1486] |  |  | 36 | 36 | 1 | 
